Source: patent US6737383B1, “Herbicidal oxadiazolidines” (priority 1999, dated 2004)

Legend:
soybean = experiment: Test B pre/postemergence soybean; type: in vivo, Glycine max
In short: (§1)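 Test chemicals in a non-phytotoxic solvent mixture with surfactant were sprayed preemergence onto planted seeds and postemergence onto plants 2 to 18 cm tall (1- to 4-leaf stage). After twelve to sixteen days in a greenhouse, injury was visually rated against untreated controls from 0 (no effect) to 10 (complete control).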

crabgrass = experiment: Test B pre/postemergence crabgrass; type: in vivo, Digitaria sanguinalis
In short: as §1

blackgrass = experiment: Test B pre/postemergence blackgrass; type: in vivo, Alopecurus myosuroides
In short: as §1

sugar beet = experiment: Test B pre/postemergence sugar beet; type: in vivo, Beta vulgaris
In short: as §1

wild oat = experiment: Test B pre/postemergence wild oat; type: in vivo, Avena fatua
In short: as §1

velvetleaf = experiment: Test B pre/postemergence velvetleaf; type: in vivo, Abutilon theophrasti
In short: as §1

surinam grass = experiment: Test B pre/postemergence surinam grass; type: in vivo, Brachiaria decumbens
In short: as §1

rape = experiment: Test B pre/postemergence rape; type: in vivo, Brassica napus
In short: as §1

giant foxtail = experiment: Test B pre/postemergence giant foxtail; type: in vivo, Setaria faberii
In short: as §1

bedstraw = experiment: Test B pre/postemergence bedstraw; type: in vivo, Galium aparine
In short: as §1

wheat = experiment: Test B pre/postemergence wheat; type: in vivo, Triticum aestivum
In short: as §1

morningglory = experiment: Test B pre/postemergence morningglory; type: in vivo, Ipomoea hederacea
In short: as §1

purple nutsedge = experiment: Test B pre/postemergence purple nutsedge; type: in vivo, Cyperus rotundus
In short: as §1

pigweed = experiment: Test B pre/postemergence pigweed; type: in vivo, Amaranthus retroflexus
In short: as §1

corn = experiment: Test B pre/postemergence corn; type: in vivo, Zea mays
In short: as §1

cocklebur = experiment: Test B pre/postemergence cocklebur; type: in vivo, Xanthium strumarium
In short: as §1

[1] = Preemergence, Rate 62 g/ha, scale of 0 to 10 where 0 is no effect and 10 is complete control
[2] = Preemergence, Rate 125 g/ha, 0 is no effect, 10 is complete control
[3] = Preemergence, Rate 250 g/ha, scale 0 to 10, 0 is no effect, 10 is complete control
[4] = Preemergence, Rate 500 g/ha, scale 0 to 10 (0 no effect, 10 complete control)
[5] = Rate 62 g/ha, Postemergence, scale of 0 to 10 where 0 is no effect and 10 is complete control
[6] = Rate 125 g/ha, Postemergence, scale 0 to 10
[7] = Rate 500 g/ha, Postemergence, scale 0 to 10

## CC(C)N(C(=O)n1oc(=O)n([C@H](C)c2ccccc2)c1=O)c1ccc(F)cc1 [Compound 179]
soybean; [1]
  Soybean plant response rating: 0
soybean; [2]
  Soybean plant response rating (0 to 10 scale): 0
soybean; [3]
  Soybean plant response rating: 0
soybean; [4]
  Soybean plant response rating: 0
soybean; [5]
  Soybean plant response rating: 1
soybean; [6]
  Soybean plant response rating: 1
soybean; Rate 250 g/ha, Postemergence
  Plant response rating (0 to 10; 0 is no effect, 10 is complete control), Soybean: 1
soybean; [7]
  Soybean plant response rating: 1
crabgrass; [1]
  Crabgrass plant response rating: 6
crabgrass; [2]
  Crabgrass plant response rating (0 to 10 scale): 7
crabgrass; [3]
  Crabgrass plant response rating: 9
crabgrass; [4]
  Crabgrass plant response rating: 9
crabgrass; [5]
  Crabgrass plant response rating: 0
crabgrass; [6]
  Crabgrass plant response rating: 0
crabgrass; Rate 250 g/ha, Postemergence
  Plant response rating (0 to 10; 0 is no effect, 10 is complete control), Crabgrass: 2
crabgrass; [7]
  Crabgrass plant response rating: 9
blackgrass; [1]
  Blackgrass plant response rating: 0
blackgrass; [2]
  Blackgrass plant response rating (0 to 10 scale): 0
blackgrass; [3]
  Blackgrass plant response rating: 2
blackgrass; [4]
  Blackgrass plant response rating: 2
blackgrass; [5]
  Blackgrass plant response rating: 0
blackgrass; [6]
  Blackgrass plant response rating: 2
blackgrass; Rate 250 g/ha, Postemergence
  Plant response rating (0 to 10; 0 is no effect, 10 is complete control), Blackgrass: 4
blackgrass; [7]
  Blackgrass plant response rating: 6
Sugar beet; [1]
  Sugarbeets plant response rating: 0
Sugar beet; [2]
  Sugarbeets plant response rating (0 to 10 scale): 0
Sugar beet; [3]
  Sugarbeets plant response rating: 0
Sugar beet; [4]
  Sugarbeets plant response rating: 0
Sugar beet; [5]
  Sugarbeets plant response rating: 0
Sugar beet; [6]
  Sugarbeets plant response rating: 0
Sugar beet; Rate 250 g/ha, Postemergence
  Plant response rating (0 to 10; 0 is no effect, 10 is complete control), Sugarbeets: 2
Sugar beet; [7]
  Sugarbeets plant response rating: 6
Wild oat; [1]
  Wild oats plant response rating: 0
Wild oat; [2]
  Wild oats plant response rating (0 to 10 scale): 0
Wild oat; [3]
  Wild oats plant response rating: 0
Wild oat; [4]
  Wild oats plant response rating: 3
Wild oat; [6]
  Wild oats plant response rating: 0
Wild oat; Rate 250 g/ha, Postemergence
  Plant response rating (0 to 10; 0 is no effect, 10 is complete control), Wild oats: 0
Wild oat; [7]
  Wild oats plant response rating: 2
velvetleaf; [1]
  Velvetleaf plant response rating: 0
velvetleaf; [2]
  Velvetleaf plant response rating (0 to 10 scale): 0
velvetleaf; [3]
  Velvetleaf plant response rating: 0
velvetleaf; [4]
  Velvetleaf plant response rating: 5
velvetleaf; [6]
  Velvetleaf plant response rating: 0
velvetleaf; Rate 250 g/ha, Postemergence
  Plant response rating (0 to 10; 0 is no effect, 10 is complete control), Velvetleaf: 0
velvetleaf; [7]
  Velvetleaf plant response rating: 3
Surinam grass; [1]
  B. signalgrass plant response rating: 7
Surinam grass; [2]
  B. signalgrass plant response rating (0 to 10 scale): 8
Surinam grass; [4]
  B. signalgrass plant response rating: 9
Surinam grass; [5]
  B. signalgrass plant response rating: 0
Surinam grass; Rate 125 g/ha, Postemergence, scale 0 (no effect) to 10 (complete control)
  B. signalgrass plant response rating: 0
Surinam grass; Rate 250 g/ha, Postemergence, scale 0 to 10, 0 is no effect, 10 is complete control
  Plant response rating, B. signalgrass: 0
Surinam grass; Rate 500 g/ha, Postemergence, scale 0 to 10, 0 no effect, 10 complete control
  B. signalgrass plant response rating: 0
rape; [1]
  Rape plant response rating: 0
rape; [2]
  Rape plant response rating (0 to 10 scale): 0
rape; [3]
  Rape plant response rating: 2
rape; [4]
  Rape plant response rating: 4
rape; [5]
  Rape plant response rating: 0
rape; [6]
  Rape plant response rating: 0
rape; Rate 250 g/ha, Postemergence
  Plant response rating (0 to 10; 0 is no effect, 10 is complete control), Rape: 0
rape; [7]
  Rape plant response rating: 2
Giant foxtail; [1]
  Giant foxtail plant response rating: 6
Giant foxtail; [2]
  Giant foxtail plant response rating (0 to 10 scale): 9
Giant foxtail; [3]
  Giant foxtail plant response rating: 10
Giant foxtail; [4]
  Giant foxtail plant response rating: 10
Giant foxtail; [5]
  Giant foxtail plant response rating: 0
Giant foxtail; [6]
  Giant foxtail plant response rating: 0
Giant foxtail; Rate 250 g/ha, Postemergence
  Plant response rating (0 to 10; 0 is no effect, 10 is complete control), Giant foxtail: 0
Giant foxtail; [7]
  Giant foxtail plant response rating: 4
bedstraw; [1]
  Bedstraw plant response rating: 0
bedstraw; [2]
  Bedstraw plant response rating (0 to 10 scale): 0
bedstraw; [3]
  Bedstraw plant response rating: 0
bedstraw; [4]
  Bedstraw plant response rating: 0
bedstraw; [5]
  Bedstraw plant response rating: 0
bedstraw; [6]
  Bedstraw plant response rating: 5
bedstraw; Rate 250 g/ha, Postemergence
  Plant response rating (0 to 10; 0 is no effect, 10 is complete control), Bedstraw: 5
bedstraw; [7]
  Bedstraw plant response rating: 10
wheat; [1]
  Wheat plant response rating: 0
wheat; [2]
  Wheat plant response rating (0 to 10 scale): 0
wheat; [3]
  Wheat plant response rating: 0
wheat; [4]
  Wheat plant response rating: 2
wheat; [6]
  Wheat plant response rating: 0
wheat; Rate 250 g/ha, Postemergence
  Plant response rating (0 to 10; 0 is no effect, 10 is complete control), Wheat: 0
wheat; [7]
  Wheat plant response rating: 0
morningglory; [1]
  Morningglory plant response rating: 0
morningglory; [2]
  Morningglory plant response rating (0 to 10 scale): 0
morningglory; [3]
  Morningglory plant response rating: 0
morningglory; [4]
  Morningglory plant response rating: 0
morningglory; [5]
  Morningglory plant response rating: 4
morningglory; [6]
  Morningglory plant response rating: 5
morningglory; Rate 250 g/ha, Postemergence
  Plant response rating (0 to 10; 0 is no effect, 10 is complete control), Morningglory: 5
morningglory; [7]
  Morningglory plant response rating: 5
Purple nutsedge; [1]
  Nutsedge plant response rating: 0
Purple nutsedge; [2]
  Nutsedge plant response rating (0 to 10 scale): 0
Purple nutsedge; [3]
  Nutsedge plant response rating: 0
Purple nutsedge; [4]
  Nutsedge plant response rating: 10
Purple nutsedge; [5]
  Nutsedge plant response rating: 0
Purple nutsedge; [6]
  Nutsedge plant response rating: 0
Purple nutsedge; Rate 250 g/ha, Postemergence
  Plant response rating (0 to 10; 0 is no effect, 10 is complete control), Nutsedge: 0
Purple nutsedge; [7]
  Nutsedge plant response rating: 0
pigweed; [1]
  Redroot pigweed plant response rating: 7
pigweed; [2]
  Redroot pigweed plant response rating (0 to 10 scale): 7
pigweed; [3]
  Redroot pigweed plant response rating: 7
pigweed; [4]
  Redroot pigweed plant response rating: 10
pigweed; [5]
  Redroot pigweed plant response rating: 0
pigweed; [6]
  Redroot pigweed plant response rating: 0
pigweed; Rate 250 g/ha, Postemergence
  Plant response rating (0 to 10; 0 is no effect, 10 is complete control), Redroot pigweed: 4
pigweed; [7]
  Redroot pigweed plant response rating: 8
corn; [1]
  Corn plant response rating: 0
corn; [2]
  Corn plant response rating (0 to 10 scale): 0
corn; [3]
  Corn plant response rating: 0
corn; [4]
  Corn plant response rating: 0
corn; [5]
  Corn plant response rating: 0
corn; [6]
  Corn plant response rating: 0
corn; Rate 250 g/ha, Postemergence
  Plant response rating (0 to 10; 0 is no effect, 10 is complete control), Corn: 0
corn; [7]
  Corn plant response rating: 0
cocklebur; [1]
  Cocklebur plant response rating: 0
cocklebur; [2]
  Cocklebur plant response rating (0 to 10 scale): 0
cocklebur; [3]
  Cocklebur plant response rating: 0
cocklebur; [4]
  Cocklebur plant response rating: 0
cocklebur; [5]
  Cocklebur plant response rating: 0
cocklebur; [6]
  Cocklebur plant response rating: 0
cocklebur; Rate 250 g/ha, Postemergence
  Plant response rating (0 to 10; 0 is no effect, 10 is complete control), Cocklebur: 0
cocklebur; [7]
  Cocklebur plant response rating: 1
